Assay results published in patent publication US10899741B2, “3,4-bipyridyl pyrazole derivative, and preparation method therefor and medical application thereof” (Jiangsu Hengrui Medicine Co., Ltd., priority 2016, dated 2021).

Tests used:
[1] = tested on: Smad signaling pathway of TGFβRI; assay: Inhibition of Smad signaling pathway of TGFβRI (3TP-lux luciferase reporter in HepG2 cells); type: cell-based; settings: HepG2, 3TP-lux plasmid, 18 hours; for IC50: Homo sapiens
Protocol: The inhibition effect of the compounds of the present invention on Smad signaling pathway of TGFβRI was determined by the following in vitro test.
The inhibition effect of the compounds of the present invention on Smad signaling pathway of TGFβRI was determined by the following experimental method:
On a 96-well plate, 100 μL of HepG2 cell (TCHu 72, Cell Bank of Typical Culture Collection Committee of Chinese Academy of Sciences) was seeded on an EMEM medium containing 10% FBS (42360-099, Gibco) in each well. The seeding density is 2.5×10^4 cells/well. The cells were incubated overnight at 37° C., in 5% CO2. Each well was replaced with fresh EMEM medium containing 10% FBS. 0.1 μg of 3TP-lux plasmid (11767, Biovector Science Lab, Inc.) was transfected in each well. The cells were further incubated for 24 hours at 37° C., in 5% CO2. Each well was replaced with 90 μL of EMEM medium containing 0.5% FBS, then the cells were starved for 6 hours. The compounds were formulated as a 20 mM stock solution, which was diluted in gradient to a 400× concentration with 100% DMSO, and further 40-fold diluted with EMEM containing 0.5% FBS. The cell culture plate was taken out, then 10 μl of diluted compound or control (0.25% DMSO) was added to each well respectively. The plate was shaken gently, then incubated for 18 hours in an incubator at 37° C., in 5% CO2. Finally, 100 μl of detection reagent ONE-Glo™ Luciferase Assay (E6110, Promega) was added to each well, and the plate was placed in dark at room temperature for 10 minutes. The chemiluminescence signal values were measured with a Victor 3.0 (PerkinElmer). The IC50 values of the compounds were calculated using Graphpad Prism software based on each concentration of the compound and the corresponding signal value thereof.

TGFβRI kinase ALK5 = TGFβRI kinase ALK5 (Homo sapiens (Human), UniProt P36897); assay: Inhibition of TGFβRI kinase ALK5 activity (ADP-Glo kit); type: biochemical; settings: ATP 50 μM, 27° C. 2.5 hours
Chain of TGFβRI kinase ALK5 (P36897 34-503): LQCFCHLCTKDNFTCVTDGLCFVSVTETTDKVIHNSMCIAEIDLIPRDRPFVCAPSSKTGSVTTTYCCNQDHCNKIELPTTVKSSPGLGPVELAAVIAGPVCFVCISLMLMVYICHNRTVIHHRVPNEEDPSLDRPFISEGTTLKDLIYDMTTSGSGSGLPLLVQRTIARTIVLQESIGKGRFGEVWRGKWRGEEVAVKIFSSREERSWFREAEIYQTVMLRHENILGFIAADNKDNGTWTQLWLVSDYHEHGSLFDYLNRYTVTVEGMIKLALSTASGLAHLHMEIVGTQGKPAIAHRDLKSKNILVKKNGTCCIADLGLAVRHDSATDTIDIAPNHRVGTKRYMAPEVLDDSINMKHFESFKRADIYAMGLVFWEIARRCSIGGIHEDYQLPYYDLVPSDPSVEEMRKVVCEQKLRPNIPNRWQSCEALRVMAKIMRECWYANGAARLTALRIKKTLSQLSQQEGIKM
Protocol: The inhibition effect of TGFβRI kinase activity in vitro was determined by the following method.
The inhibition effect of the compounds of the present invention on TGFβRI kinase ALK5 activity was determined by the following experimental method:
TGFβRI kinase assay kit (V4093, Promega) was used to assay enzyme activity. 2 μl of enzyme solution (the final concentration of enzyme in the reaction system was 2 ng/μL) formulated with reaction buffer (40 mM Tris pH 7.5, 20 mM MgCl2, 0.1 mg/ml BSA), 1 μl of a 3-fold gradient dilution of the compounds dissolved in 5% DMSO, and 2 μl of a mixed solution of ATP and TGFβRI substrate peptide (the final concentration of ATP was 50 μM, and the final concentration of substrate was 0.2 μg/μL) were added successively to a 384-well plate (4514, Corning). After reaction at 27° C. for 2.5 hours, 5 μl of ADP-Glo solution in the kit was added to each well, then the plate was placed at 27° C. for 40 minutes. 10 μl of kinase assay reagent was then added to each well, then the plate was placed at 27° C. for 30 minutes. The chemiluminescence signal values were measured with a Victor 3 (PerkinElmer) multi-function microplate reader. The IC50 values of the compounds for enzyme inhibition were calculated using Graphpad prism software based on each concentration of the compound and the corresponding signal value thereof.

NIH3T3 cell = assay: Inhibition of NIH3T3 cell proliferation (CellTiter-Glo); type: cell-based; settings: NIH3T3, 72 hours, 0.5% FBS; for IC50: Mus musculus
Protocol: The inhibition effect of the compounds of the present invention on NIH3T3 cell proliferation was determined by the following in vitro test.
The inhibition effect of the compounds of the present invention on NIH3T3 cell proliferation was determined by the following experimental method:
On a 96-well white plate with transparent bottom (3903, Corning), 100 μL of NIH3T3 cell (GNM6, Cell Bank of Typical Culture Collection Committee of Chinese Academy of Sciences) was seeded in a DMEM medium containing 10% FBS (SH1-30243.01, GE) in each well. The seeding density is 2000 cells/well. The cells were incubated overnight at 37° C., in 5% CO2. After overnight incubation, each well was replaced with 90 μL of DMEM medium containing 0.5%0 FBS. 10 μl of a 3-fold gradient dilution of the compounds with DMEM medium containing 0.5% FBS was then added, and the plate was incubated for 72 hours in a cell incubator at 37° C., in 5% CO2. Finally, 50 μL of CellTiter-Glo (G7573, Promega) was added to each well. After incubation for 10 minutes at room temperature, the chemiluminescence signal values were measured with a Victor 3 microplate reader (PerkinElmer). The IC50 values of the compounds were calculated using Graphpad Prism software based on each concentration of the compound and the corresponding signal value thereof.

SMILES	Maximum inhibition rate (%) [1]	IC50 [1]	IC50 (TGFβRI kinase ALK5)	IC50 (NIH3T3 cell)	Maximum inhibition rate (%) (NIH3T3 cell)
Cc1cccc(-c2nn([C@@H]3CCN(S(C)(=O)=O)C3)cc2-c2ccnc(-c3ccc(S(C)(=O)=O)cc3)c2)n1 [Example 8, (R)-4-(3-(6-Methylpyridin-2-yl)-1-(1-(methylsulfonyl)pyrrolidin-3-yl)-1H-pyrazol-4-yl)-2-(4-(methylsulfonyl)phenyl)pyridine]	98%	218 nM	370 nM	490 nM	114%
Cc1cccc(-c2nn(C3CCCC3)cc2-c2ccnc(-c3ccc(S(C)(=O)=O)cc3)c2)n1 [Example 3, 4-(1-Cyclopentyl-3-(6-methylpyridin-2-yl)-1H-pyrazol-4-yl)-2-(4-(methylsulfonyl)phenyl)pyridine]	101%	57 nM	241 nM	366 nM	105%
Cc1cccc(-c2nn(C3CC3)cc2-c2ccnc(-c3ccc(C#N)cc3)c2)n1 [Example 7, 4-(4-(1-Cyclopropyl-3-(6-methylpyridin-2-yl)-1H-pyrazol-4-yl)pyridin-2-yl)benzonitrile]	98%	168 nM			
